Assay results: patent US20200339548A1, “PYRIMIDINE DERIVATIVES AND THEIR USE FOR THE TREATMENT OF CANCER” (Adorx Therapeutics Limited, priority 2017, published 2020)
Like-named read-outs stand apart in the source and are kept apart here.

Key:
Adenosine A1 receptor = target: T1, Adenosine A1 receptor (Homo sapiens, UniProt P30542); experiment: Adenosine receptor TR-FRET binding assay, A1; conditions: Table 9, further testing; displacement of 100 nM CA200645, CHO cell membranes
T1 construct: expressed in transfected cells; host or cells: CHO cell membranes
T1 sequence (P30542 1-326): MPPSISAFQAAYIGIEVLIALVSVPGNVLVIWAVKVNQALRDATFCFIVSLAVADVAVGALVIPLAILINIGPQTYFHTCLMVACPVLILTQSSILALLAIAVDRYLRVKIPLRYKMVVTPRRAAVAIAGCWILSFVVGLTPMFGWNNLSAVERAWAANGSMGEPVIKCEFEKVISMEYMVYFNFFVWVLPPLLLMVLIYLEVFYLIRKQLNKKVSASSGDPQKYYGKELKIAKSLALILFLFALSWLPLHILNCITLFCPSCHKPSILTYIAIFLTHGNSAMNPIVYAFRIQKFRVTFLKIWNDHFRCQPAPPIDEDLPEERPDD
Protocol: (§1) All FRET binding experiments were conducted at room temperature in white 384-well plates, in assay binding buffer containing 1× LabMed (Cisbio, France), 100 μg/mL saponin, 1% DMSO and 0.02% pluronic acid. Binding of the fluorescently labelled Adenosine receptor antagonist XAC (CA200645, FRET acceptor) to terbium-labelled A1, A2a, A2b and A3 adenosine receptors (FRET donors) was detected by time-resolved FRET due to the close proximity of the donor and acceptor in a binding event. To investigate the ability of unlabelled test compounds to bind to Adenosine A1, A2a, A2b and A3 receptors, dose response curves were constructed that determined the ability of a range of concentrations to inhibit the binding of 30 nM CA200645 to the A2b receptor and 100 nM CA200645 to the A1, A2a, and A3 receptor.
(§2) Serial dilution (1:3 dilutions) of test compounds in neat DMSO and transfer of a 400 nL sample of test compound into the assay plate was carried out using the Mosquito (TTP Labtech, UK). The compound samples were incubated for 2 hours at room temperature with a fixed concentration of CA200645 defined for each receptor (see above) and CHO cell membranes containing the human Adenosine A1 (0.5 μg/well), A2a (0.3 μg/well), A2b (1 μg/well) or A3 (1 μg/well) receptor in 40 μL of assay buffer. Total and non-specific binding of CA200645 was determined in the absence and presence of 10 μM XAC, respectively.
(§3) Following 2 hours incubation, the level of CA200645 binding was detected on a Pherastar FSX (BMG Labtech, Germany) using standard TR-FRET settings. The terbium donor was excited with three laser flashes at a wavelength of 337 nm, and donor and acceptor emission was detected at 620 nm and 665 nm wavelengths, respectively. FRET ratios were obtained by multiplying the acceptor/donor ratio value by 10,000. Specific binding was determined by subtracting the non-specific binding FRET ratio from the total binding FRET ratio. Compound IC50 curves were analysed using GraphPad Prism 7.0 (GraphPad, USA) and Ki affinity values were determined from the obtained […] values using the method of Cheng and Prusoff.

Adenosine A3 receptor = target: T2, Adenosine A3 receptor (Homo sapiens, UniProt P0DMS8); experiment: Adenosine receptor TR-FRET binding assay, A3
T2 construct: expressed in transfected cells; host or cells: CHO cell membranes
T2 sequence (P0DMS8 1-318): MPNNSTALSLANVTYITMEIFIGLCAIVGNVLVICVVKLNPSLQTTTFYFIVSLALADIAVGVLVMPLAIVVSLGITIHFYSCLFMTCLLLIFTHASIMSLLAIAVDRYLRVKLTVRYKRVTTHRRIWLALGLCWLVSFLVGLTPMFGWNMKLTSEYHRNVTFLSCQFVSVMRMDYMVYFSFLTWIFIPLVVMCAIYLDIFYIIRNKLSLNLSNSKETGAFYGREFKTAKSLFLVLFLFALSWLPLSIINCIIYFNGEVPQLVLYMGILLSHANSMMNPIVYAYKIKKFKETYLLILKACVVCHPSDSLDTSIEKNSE
Protocol: as §1, §2, §3

Adenosine A2b receptor = target: T3, Adenosine A2b receptor (Homo sapiens, UniProt P29275); experiment: Adenosine receptor TR-FRET binding assay, A2b; conditions: Table 9, further testing; displacement of 30 nM CA200645, CHO cell membranes
T3 construct: expressed in transfected cells; host or cells: CHO cell membranes
T3 sequence (P29275 1-332): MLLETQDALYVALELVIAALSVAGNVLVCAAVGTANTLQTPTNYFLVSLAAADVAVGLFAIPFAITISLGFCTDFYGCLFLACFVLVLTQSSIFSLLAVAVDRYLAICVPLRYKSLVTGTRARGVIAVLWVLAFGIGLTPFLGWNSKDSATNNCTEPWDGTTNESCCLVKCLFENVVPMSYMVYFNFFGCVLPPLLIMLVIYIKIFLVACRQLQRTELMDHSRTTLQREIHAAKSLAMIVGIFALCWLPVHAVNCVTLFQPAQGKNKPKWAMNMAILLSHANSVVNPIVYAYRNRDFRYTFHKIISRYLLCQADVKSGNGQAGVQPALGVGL
Protocol: as §1, §2, §3

Adenosine A2a receptor = target: T4, Adenosine A2a receptor (Homo sapiens, UniProt P29274); experiment: Adenosine receptor TR-FRET binding assay, A2a; conditions: displacement of 100 nM CA200645, CHO cell membranes
T4 construct: expressed in transfected cells; host or cells: CHO cell membranes
Procedure, shortened: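 Competition TR-FRET binding in CHO cell membranes expressing terbium-labelled human receptors, displacing fluorescent XAC (CA200645; 30 nM for A2b, 100 nM for A1, A2a, A3); 2 h at room temperature with saponin buffer, 1% DMSO. 665/620 nm ratio; non-specific with 10 μM XAC; Ki by Cheng–Prusoff from IC50.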

[1] = Table 9, further testing, displacement of 100 nM CA200645, CHO cell membranes, read-out: A3 Ki

T4 sequence (P29274 whole entry): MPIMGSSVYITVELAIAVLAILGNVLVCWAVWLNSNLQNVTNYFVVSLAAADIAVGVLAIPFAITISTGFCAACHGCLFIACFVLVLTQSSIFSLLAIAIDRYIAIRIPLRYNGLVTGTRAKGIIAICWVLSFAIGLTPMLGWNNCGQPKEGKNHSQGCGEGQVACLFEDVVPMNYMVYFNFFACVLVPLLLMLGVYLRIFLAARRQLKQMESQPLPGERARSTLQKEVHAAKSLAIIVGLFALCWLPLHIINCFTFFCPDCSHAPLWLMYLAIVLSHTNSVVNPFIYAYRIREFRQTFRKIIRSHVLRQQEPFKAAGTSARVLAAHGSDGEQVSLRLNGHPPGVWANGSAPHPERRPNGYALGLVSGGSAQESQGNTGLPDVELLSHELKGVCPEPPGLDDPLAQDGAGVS

SMILES | Ki (Adenosine A1 receptor) [nM] | Ki (Adenosine A3 receptor; [1]) [nM] | Ki (Adenosine A2b receptor) [nM] | Ki (Adenosine A2a receptor; Table 9, further testing) [nM] | Ki (Adenosine A2a receptor; Table 8, Cheng and Prusoff) [nM] | Ki (Adenosine A3 receptor) [nM]
Cc1cc(C)cc(CNC(=O)c2cnc(-c3ccco3)nc2N)c1 [Example 5.39, 4-Amino-N-[(3,5-dimethylphenyl)methyl]-2-(2-furyl)pyrimidine-5-carboxamide] | 521 | 753 | 2130 | 21 |  | 
COc1cc(CNC(=O)c2cnc(-c3ccco3)nc2N)cc(OC)c1 [Example 5.43, 4-Amino-N-[(3,5-dimethoxyphenyl)methyl]-2-(2-furyl)pyrimidine-5-carboxamide] | 4780 | 5920 | 5140 | 58 |  | 
Nc1nc(-c2ccco2)ncc1C(=O)NCc1ncccc1F [Example 5.48, 4-Amino-N-[(3-fluoro-2-pyridyl)methyl]-2-(2-furyl)pyrimidine-5-carboxamide] | 7960 | 3050 | 420 | 23 |  | 
Nc1nc(-c2ccco2)ncc1C(=O)NCc1cccc2c1OCO2 [Example 5.52, 4-Amino-N-(1,3-benzodioxol-4-ylmethyl)-2-(2-furyl)pyrimidine-5-carboxamide] | 4790 | 3090 | 5130 | 11 |  | 
Nc1cccnc1CNC(=O)c1cnc(-c2ccco2)nc1N [Example 5.53, 4-Amino-N-[(3-amino-2-pyridyl)methyl]-2-(2-furyl)pyrimidine-5-carboxamide] | 6020 | 4630 | 644 | 11 |  | 
Cc1cccnc1CNC(=O)c1nnc(-c2ccc(F)cc2)nc1N [Example 8, 5-Amino-3-(4-fluorophenyl)-N-[(3-methyl-2-pyridyl)methyl]-1,2,4-triazine-6-carboxamide] | 137 | 24 | 1100 | 51 | 51 | 
Cc1ccc(CNC(=O)c2cnc(-c3cccc(F)c3)nc2N)cc1 [Example 10, 4-Amino-2-(3-fluorophenyl)-N-(p-tolylmethyl)pyrimidine-5-carboxamide] | 4440 | 1800 | 8490 | 796 | 796 | 
Nc1nc(-c2cccc(F)c2)ncc1C(=O)NCc1cccc(Cl)c1 [Example 10.2, 4-Amino-N-[(3-chlorophenyl)methyl]-2-(3-fluorophenyl)pyrimidine-5-carboxamide] | 280 | 582 | 1480 | 194 | 194 | 
Nc1nc(-c2cccc(F)c2)ncc1C(=O)NCc1cccc(F)c1 [Example 10.3, 4-Amino-2-(3-fluorophenyl)-N-[(3-fluorophenyl)methyl]pyrimidine-5-carboxamide] | 598 | 504 | 1360 | 180 | 180 | 
Nc1nc(-c2cccc(F)c2)ncc1C(=O)NCc1ccc(F)cc1 [Example 10.4, 4-Amino-2-(3-fluorophenyl)-N-[(4-fluorophenyl)methyl]pyrimidine-5-carboxamide] | 3800 | 1820 | 6060 | 959 | 959 | 
Nc1nc(-c2cccc(F)c2)ncc1C(=O)NCc1ccccc1Cl [Example 10.5, 4-Amino-N-[(2-chlorophenyl)methyl]-2-(3-fluorophenyl)pyrimidine-5-carboxamide] | 658 | 300 | 2970 | 137 | 137 | 
COc1cc(CNC(=O)c2cnc(-c3cccc(F)c3)nc2N)cc(OC)c1 [Example 10.9, 4-Amino-N-[(3,5-dimethoxyphenyl)methyl]-2-(3-fluorophenyl)pyrimidine-5-carboxamide] | 811 |  | 1170 | 661 | 661 | 1160
Cc1cccnc1CNC(=O)c1c(N)nc(-c2ccco2)nc1OCC(C)C [Example 20.3, 4-Amino-2-(2-furyl)-6-isobutoxy-N-[(3-methyl-2-pyridyl)methyl]pyrimidine-5-carboxamide] | 4.1 | 1.7 | 174 | 0.47 |  | 

Further lines, with some results ahead:

Ki (Adenosine A1 receptor) [nM] | Ki (Adenosine A3 receptor; [1]) [nM] | Ki (Adenosine A2b receptor) [nM] | Ki (Adenosine A2a receptor; Table 9, further testing) [nM] | Ki (Adenosine A2a receptor; Table 8, Cheng and Prusoff) [nM] | SMILES | Ki (Adenosine A3 receptor) [nM]
238 | 778 | 2420 | 104 | 104 | Nc1nc(-c2cccc(F)c2)ncc1C(=O)NCc1cc(F)cc(F)c1 [Example 10.7, 4-Amino-N-[(3,5-difluorophenyl)methyl]-2-(3-fluorophenyl)pyrimidine-5-carboxamide] | 
632 | 1850 | 3190 | 976 | 976 | Nc1nc(-c2cccc(F)c2)ncc1C(=O)NCc1cccc(C(F)(F)F)c1 [Example 10.11, 4-Amino-2-(3-fluorophenyl)-N-[[3-(trifluoromethyl)phenyl]methyl]pyrimidine-5-carboxamide] | 
400 | 371 | 536 | 36 | 36 | Nc1nc(-c2cccc(F)c2)ncc1C(=O)NCc1ncccc1Cl [Example 10.12, 4-Amino-N-[(3-chloro-2-pyridyl)methyl]-2-(3-fluorophenyl)pyrimidine-5-carboxamide] | 
314 | 1190 | 3890 | 20 | 20 | Cc1cccnc1CNC(=O)c1c(N)nc(-c2ccco2)nc1Cl [Example 13, 4-Amino-6-chloro-2-(2-furyl)-N-[(3-methyl-2-pyridyl)methyl]pyrimidine-5-carboxamide] | 
109 | 830 | 508 | 1.1 |  | CC(=O)NCCOc1nc(-c2ccco2)nc(N)c1C(=O)NCc1ncccc1C [Example 20, 4-(2-Acetamidoethoxy)-6-amino-2-(2-fury)-N-[(3-methyl-2-pyridyl)methyl]pyrimidine-5-carboxamide] | 
5.4 | 86 | 107 | 0.13 |  | Cc1cccnc1CNC(=O)c1c(N)nc(-c2ccco2)nc1OCCO [Example 20.1, 4-Amino-2-(2-furyl)-6-(2-hydroxyethoxy)-N-[(3-methyl-2-pyridyl)methyl]pyrimidine-5-carboxamide] | 
4 | 9.9 | 37 | 0.21 |  | Cc1cccnc1CNC(=O)c1c(N)nc(-c2ccco2)nc1OCC(F)(F)F [Example 20.2, 4-Amino-2-(2-furyl)-N-[(3-methyl-2-pyridyl)methyl]-6-(2,2,2-trifluoroethoxy)pyrimidine-5-carboxamide] | 
